Measurements reported in ChEMBL document CHEMBL1201862, “PubChem BioAssay data set” (2004).
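These data come from cells grown in 96-well plates and exposed to compound for 48 hours at five concentrations. The concentration for 50% growth inhibition is given as GI50.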 Calls of active or inactive are those of the source. No stated cut-off is given here; in the data, active = GI50 up to about 1.1 µM and inactive = higher.

Tests used:
Assay in all cases: DTP human tumour cell line panel, 48 h
Hs-578T = system: Hs-578T
SF-268 = system: SF-268
LOX IMVI = system: LOX IMVI
HOP-62 = system: HOP-62
NCI-H226 = system: NCI-H226
SK-MEL-5 = system: SK-MEL-5
786-0 = system: 786-0
T47D = system: T47D
HCC 2998 = system: HCC 2998
IGROV-1 = system: IGROV-1
SF-295 = system: SF-295
OVCAR-5 = system: OVCAR-5
SF-539 = system: SF-539
U-251 = system: U-251
MCF7 = system: MCF7
UACC-62 = system: UACC-62
MDA-MB-435 = system: MDA-MB-435
ACHN = system: ACHN
K562 = system: K562
MDA-N = system: MDA-N

Measured: GI50

O=C(Nc1ccc(Cl)cc1)c1cc(S(=O)(=O)Nc2n[nH]c(=O)n2-c2ccccc2)c(S)cc1Cl
inactive: Hs-578T > 100 µM | SF-268 > 100 µM | LOX IMVI > 100 µM | HOP-62 > 100 µM | NCI-H226 > 100 µM | SK-MEL-5 > 100 µM | 786-0 > 100 µM | T47D > 100 µM | HCC 2998 > 100 µM | IGROV-1 > 100 µM | SF-295 > 100 µM | OVCAR-5 > 100 µM | SF-539 > 100 µM | U-251 > 100 µM | MCF7 > 100 µM | UACC-62 > 100 µM | MDA-MB-435 > 100 µM

S=C1c2ccccc2N=C(NC2CCCC2)C2CSCN12 (stereo not given)
inactive: Hs-578T 44.4 µM | SF-268 49.2 µM | LOX IMVI 75.2 µM | HOP-62 > 100 µM | NCI-H226 88.5 µM | SK-MEL-5 49.2 µM | 786-0 > 100 µM | T47D 48.3 µM | ACHN > 100 µM | K562 39.8 µM | HCC 2998 65.6 µM | IGROV-1 > 100 µM | SF-295 > 100 µM | OVCAR-5 > 100 µM | U-251 95.5 µM | MCF7 67.6 µM | UACC-62 43.5 µM | MDA-MB-435 76 µM

CNC(=O)CNC(=O)CCC(=O)OC
inactive: SF-268 > 100 µM | HOP-62 > 100 µM | SK-MEL-5 > 100 µM | 786-0 > 100 µM | T47D > 100 µM | ACHN > 100 µM | K562 > 100 µM | MDA-N > 100 µM | SF-295 > 100 µM | OVCAR-5 > 100 µM | SF-539 > 100 µM | U-251 > 100 µM | MCF7 > 100 µM | UACC-62 > 100 µM | MDA-MB-435 > 100 µM

COC(=O)/C=C/N1CC1
inactive: Hs-578T > 10 µM | SF-268 > 10 µM | HOP-62 > 10 µM | NCI-H226 > 10 µM | SK-MEL-5 > 10 µM | 786-0 > 10 µM | T47D > 10 µM | ACHN > 10 µM | K562 > 10 µM | HCC 2998 3.62 µM | IGROV-1 1.45 µM | SF-295 > 10 µM | OVCAR-5 4.76 µM | SF-539 > 10 µM | U-251 5.41 µM | MCF7 > 10 µM | UACC-62 > 10 µM | MDA-MB-435 > 10 µM

Fc1ccc2c3c([nH]c2c1)CCN(Cc1ccccc1)C3
inactive: Hs-578T 12 µM | SF-268 21 µM | LOX IMVI 16.9 µM | HOP-62 15 µM | NCI-H226 19 µM | SK-MEL-5 22.3 µM | 786-0 16.1 µM | T47D 14.7 µM | ACHN 22.8 µM | K562 18.1 µM | HCC 2998 13.2 µM | IGROV-1 20.7 µM | SF-295 14.7 µM | OVCAR-5 19.9 µM | SF-539 21.7 µM | U-251 19.7 µM | MCF7 16.7 µM | UACC-62 18.2 µM | MDA-MB-435 17.5 µM

Cc1ccc(O)c(/N=N\c2c(O)cc(S(=O)(=O)O)c3ccccc23)c1
inactive: Hs-578T > 100 µM | SF-268 > 100 µM | HOP-62 57.4 µM | NCI-H226 14.1 µM | SK-MEL-5 20.7 µM | 786-0 57.5 µM | ACHN 40.5 µM | K562 32.2 µM | HCC 2998 > 100 µM | IGROV-1 40.3 µM | SF-295 34.6 µM | OVCAR-5 45.6 µM | SF-539 62.5 µM | U-251 61.8 µM | MCF7 41.1 µM | UACC-62 25.7 µM | MDA-MB-435 56.9 µM

Cc1cc(S(N)(=O)=O)c(S/C(=N\Nc2ccc([N+](=O)[O-])cc2)c2ccc(Cl)cc2)cc1Cl
inactive: Hs-578T 4.88 µM | SF-268 2.3 µM | LOX IMVI 2.1 µM | HOP-62 3.18 µM | NCI-H226 2.22 µM | SK-MEL-5 3.48 µM | 786-0 2.64 µM | T47D 3.07 µM | ACHN 2.96 µM | K562 3.41 µM | IGROV-1 3.44 µM | SF-295 2.11 µM | OVCAR-5 2.64 µM | SF-539 1.96 µM | U-251 2.25 µM | MCF7 2.01 µM | UACC-62 4.57 µM | MDA-MB-435 2.27 µM

CCC[S+]([O-])c1nc(COC(=O)NC)c(COC(=O)NC)n1C (stereo not given)
inactive: SF-268 > 100 µM | LOX IMVI > 100 µM | HOP-62 > 100 µM | NCI-H226 > 100 µM | SK-MEL-5 > 100 µM | 786-0 > 100 µM | K562 > 100 µM | HCC 2998 > 100 µM | IGROV-1 > 100 µM | SF-295 > 100 µM | OVCAR-5 > 100 µM | SF-539 > 100 µM | U-251 > 100 µM | MCF7 > 100 µM | UACC-62 > 100 µM

Oc1c(Cl)c(Cl)c(O)c(CCNc2nccs2)c1Cl
inactive: SF-268 9.06 µM | HOP-62 19.1 µM | SK-MEL-5 2.2 µM | 786-0 16.9 µM | T47D 5.48 µM | ACHN 6.44 µM | K562 4.58 µM | HCC 2998 16.1 µM | IGROV-1 3.27 µM | SF-295 19.1 µM | OVCAR-5 23.2 µM | SF-539 1.68 µM | U-251 11.3 µM | MCF7 2.41 µM | UACC-62 17.1 µM | MDA-MB-435 16.1 µM

C=CCNC(=O)/C=C\C(=O)O
inactive: SF-268 > 100 µM | LOX IMVI > 100 µM | HOP-62 > 100 µM | NCI-H226 > 100 µM | SK-MEL-5 > 100 µM | 786-0 > 100 µM | ACHN > 100 µM | K562 > 100 µM | HCC 2998 > 100 µM | IGROV-1 > 100 µM | SF-295 > 100 µM | OVCAR-5 > 100 µM | SF-539 > 100 µM | U-251 > 100 µM | UACC-62 > 100 µM

CC(=O)C1=C(C)N(c2ccc(C)cc2)C2(O)C=CC(O)=C3C(=O)c4ccccc4C(=O)C312 (stereo not given)
inactive: Hs-578T 24.2 µM | SF-268 15.9 µM | LOX IMVI 6.95 µM | HOP-62 26.9 µM | NCI-H226 22.8 µM | SK-MEL-5 7.4 µM | 786-0 9.14 µM | T47D 9.95 µM | ACHN 11.8 µM | K562 31.3 µM | HCC 2998 16.8 µM | IGROV-1 7.38 µM | SF-295 13.7 µM | OVCAR-5 23.7 µM | SF-539 23.8 µM | U-251 18.5 µM | MCF7 7.71 µM | UACC-62 10.5 µM | MDA-MB-435 2.33 µM

CC(=O)NC(CCCNC(=O)OCc1ccccc1)C(=O)O (stereo not given)
inactive: SF-268 > 100 µM | LOX IMVI > 100 µM | HOP-62 > 100 µM | NCI-H226 > 100 µM | SK-MEL-5 > 100 µM | 786-0 > 100 µM | ACHN > 100 µM | K562 > 100 µM | HCC 2998 > 100 µM | IGROV-1 > 100 µM | SF-295 > 100 µM | OVCAR-5 > 100 µM | SF-539 > 100 µM | U-251 > 100 µM | UACC-62 > 100 µM

CC1(C)Cc2c(cnn2-c2ccc(C(F)(F)F)cc2)-c2[nH]c(-c3ccc(O)cc3)nc21
inactive: SF-268 9.16 µM | LOX IMVI 17.8 µM | HOP-62 21.4 µM | NCI-H226 27.2 µM | SK-MEL-5 16.9 µM | 786-0 3.32 µM | T47D 16.7 µM | ACHN 14.6 µM | K562 5.15 µM | HCC 2998 15.7 µM | IGROV-1 19.4 µM | MDA-N 14.6 µM | SF-295 16 µM | OVCAR-5 17.8 µM | U-251 12.3 µM | MCF7 14.2 µM | UACC-62 16.2 µM | MDA-MB-435 17.2 µM

Cc1ccc2ccccc2c1NC1=NCCO1
inactive: Hs-578T 24.9 µM | SF-268 > 100 µM | HOP-62 > 100 µM | NCI-H226 20.2 µM | SK-MEL-5 81.5 µM | 786-0 > 100 µM | T47D 41.7 µM | ACHN 76.6 µM | K562 56.9 µM | HCC 2998 82.8 µM | IGROV-1 > 100 µM | SF-295 > 100 µM | OVCAR-5 > 100 µM | SF-539 35.6 µM | U-251 > 100 µM | MCF7 82 µM | UACC-62 > 100 µM | MDA-MB-435 > 100 µM

CCOC(=O)CCC1(C(=O)OCC)CCCC1=O (stereo not given)
inactive: SF-268 > 100 µM | LOX IMVI 47.6 µM | HOP-62 > 100 µM | NCI-H226 > 100 µM | SK-MEL-5 > 100 µM | 786-0 > 100 µM | ACHN > 100 µM | K562 > 100 µM | HCC 2998 > 100 µM | IGROV-1 > 100 µM | SF-295 > 100 µM | OVCAR-5 > 100 µM | SF-539 > 100 µM | U-251 > 100 µM | UACC-62 > 100 µM

O=C(Nc1nc2ccc([N+](=O)[O-])cc2[n+]([O-])n1)C(F)(F)F
inactive: SF-268 62.4 µM | NCI-H226 49.8 µM | SK-MEL-5 12.5 µM | 786-0 36.1 µM | T47D 35.2 µM | ACHN 22 µM | K562 20 µM | HCC 2998 49.8 µM | IGROV-1 18 µM | MDA-N 18.7 µM | SF-295 27.9 µM | OVCAR-5 41.8 µM | SF-539 45.4 µM | U-251 30.2 µM | MCF7 20 µM | UACC-62 21.3 µM | MDA-MB-435 17.6 µM
